In patent US8802663B2, “Pyrazole oxadiazole derivatives as S1P1 agonists” (Merck Serono SA, priority 2009, dated 2014):

Legend:
S1P1 [1] = target: T1, S1P1 (Homo sapiens (Human), UniProt P21453); experiment: Receptor binding assay, [33P]sphingosine 1-phosphate, membranes from CHO cells expressing S1P1; settings: CHO cell membranes, 25 pM [33P]sphingosine 1-phosphate
Method: (§1) Receptor binding assay: Membranes were prepared from CHO cells expressing S1P1 or S1P3 for use in ligand and […] binding studies. Cells were suspended in 50 mM TRIS, pH 7.4, 2 mM EDTA, 250 mM Sucrose (buffer A) and 1× Complete protease inhibitor cocktail (Roche), and disrupted at 4° C. by N2 decompression using a cell disruption bomb (Parr Instrument). Following centrifugation at 1000 RPM for 10 min at 4° C., the supernatant was suspended in buffer A and centrifuged again at 19000 RPM for 60 min at 4° C. The pellet was then suspended in 10 mM HEPES, pH 7.4, 1 mM EDTA, 250 mM Sucrose (Buffer B), and 1× Complete EDTA-free protease inhibitor cocktail and homogenized using a potter. Membranes were flash frozen in liquid N2 and stored at −80° C. [33P]sphingosine 1-phosphate (3000 Ci/mmol; American Radiolabeled Chemicals, Inc.) was added to test compounds in DMSO. Membranes and WGA SPA beads (GE Healthcare) were added to give a final volume of 100 μl in 96-well plates with assay concentrations of 25 pM or 10 pM [33P]sphingosine 1-phosphate (respectively for S1P1 or S1P3), 50 mM HEPES, pH 7.5, 5 mM MgCl2, 100 mM NaCl, 0.4% fatty acid-free BSA, 1-5 μg/well of proteins and 100 μg/well of WGA SPA beads. Binding was performed for 60 min at RT on a shaker and bound radioactivity was measured on a PerkinElmer 1450 MicroBeta counter. Specific binding was calculated by subtracting remaining radioactivity in the presence of 1000-fold excess of unlabeled SIP. Binding data were analyzed using the GraphPad Prism program.

S1P1 [2] = target: T1, S1P1; experiment: 35S-GTPγS binding, membranes from CHO cells expressing S1P1; assay type: biochemical; settings: CHO cell membranes
S1P3 = S1P3 (Homo sapiens (Human), UniProt Q99500); experiment: 35S-GTPγS binding, membranes from CHO cells expressing S1P3; assay type: biochemical; settings: CHO cell membranes
Method: as §1
Measurements of 35S-GTPγS Binding: Membranes (1 to 10 μg protein) prepared as described above, were incubated in 96-well Scintiplates (PerkinElmer) with test compounds diluted in DMSO, in 180 μl of 20 mM HEPES, pH 7.4, 10 mM MgCl2, 2 μg/well Saponin, 0.2% fatty acid free BSA (Assay buffer), 140 mM NaCl and 1.7 μM GDP. The assay was initiated with the addition of 20 μl of 1.5 nM [35S]-GTPγS (1100 Ci/mmol; GE Healthcare) in assay buffer. After 60 min incubation at 30° C. on a shaker, plates were centrifuged for 10 min at 2000 RPM. Supernatant was discarded and membrane bound radioactivity was measured on a PerkinElmer 1450 MicroBeta counter. Triplicate samples were averaged and expressed as % response relative to S1P activation in absence of compound (n=2).

Sequence of S1P3 (Q99500 whole entry, species assumed): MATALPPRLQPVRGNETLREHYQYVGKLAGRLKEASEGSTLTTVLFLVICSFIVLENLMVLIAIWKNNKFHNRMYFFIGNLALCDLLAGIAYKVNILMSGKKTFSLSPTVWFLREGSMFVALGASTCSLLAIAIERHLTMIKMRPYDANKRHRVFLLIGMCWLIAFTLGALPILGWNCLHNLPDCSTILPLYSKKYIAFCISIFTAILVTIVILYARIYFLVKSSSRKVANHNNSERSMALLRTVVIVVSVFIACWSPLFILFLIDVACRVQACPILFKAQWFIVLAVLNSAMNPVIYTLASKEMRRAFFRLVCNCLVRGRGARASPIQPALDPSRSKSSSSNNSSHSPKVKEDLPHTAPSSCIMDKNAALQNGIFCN
T1 sequence (P21453 whole entry, species assumed): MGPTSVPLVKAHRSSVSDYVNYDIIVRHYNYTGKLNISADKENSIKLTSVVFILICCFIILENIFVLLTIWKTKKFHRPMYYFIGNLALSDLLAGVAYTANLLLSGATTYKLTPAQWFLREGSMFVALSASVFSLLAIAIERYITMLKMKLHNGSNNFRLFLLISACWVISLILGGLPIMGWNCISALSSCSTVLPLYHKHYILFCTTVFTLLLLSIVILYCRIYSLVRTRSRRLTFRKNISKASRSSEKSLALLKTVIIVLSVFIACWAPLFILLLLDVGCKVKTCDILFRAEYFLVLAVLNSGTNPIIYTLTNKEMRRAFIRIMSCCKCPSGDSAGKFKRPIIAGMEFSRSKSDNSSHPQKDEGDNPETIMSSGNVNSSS

Row | Compound | Ki (S1P1 [1]) [nM] | EC50 (S1P1 [2]) [nM] | EC50 (S1P3) [nM]
1 | 4-[4-[3-(2,5-difluorophenyl)-1,2,4-oxadiazol-5-yl]-1-(2-fluorophenyl)-1H-pyrazol-5-yl]pyridine [Example 8] | 3 | 3 | 
2 | FC(F)(F)c1cccc(-c2noc(-c3cnn(C4CCCCC4)c3-c3ccncc3)n2)c1 [Example 28, 4-(1-cyclohexyl-4-{3-[3-(trifluoromethyl)phenyl]-1,2,4-oxadiazol-5-yl}-1H-pyrazol-5-yl)pyridine] |  | 16 | 2660
3 | Fc1ccc(F)c(-c2noc(-c3cnn(C4CCCCC4)c3C3CCOCC3)n2)c1 [Example 31, 5-[1-cyclohexyl-5-(tetrahydro-2H-pyran-4-yl)-1H-pyrazol-4-yl]-3-(2,5-difluorophenyl)-1,2,4-oxadiazole] |  | 12 | > 20000
4 | CC1CCCCC1n1ncc(-c2nc(-c3cc(F)ccc3F)no2)c1-c1ccncc1 (centres unmarked) [Example 34, 4-[4-[3-(2,5-difluorophenyl)-1,2,4-oxadiazol-5-yl]-1-(2-methylcyclohexyl)-1H-pyrazol-5-yl]pyridine] |  | 6 | 1610
5 | COCc1c(-c2nc(-c3ccc(/C=C/C(=O)O)cc3)no2)cnn1C1CCCCC1 [Example 98, (E)-3-(4-(5-(1-cyclohexyl-5-(methoxymethyl)-1H-pyrazol-4-yl)-1,2,4-oxadiazol-3-yl)phenyl)acrylic acid] | 409 |  | 
6 | CC(C)(C)Cn1ncc(-c2nc(-c3ccc(CN4CC(C(=O)O)C4)cc3)no2)c1-c1ccncc1 [Example 105, 1-(4-(5-(1-neopentyl-5-(pyridin-4-yl)-1H-pyrazol-4-yl)-1,2,4-oxadiazol-3-yl)benzyl)azetidine-3-carboxylic acid] | 34 | 42 | 
7 | O=C(O)C1CCN(Cc2ccc(-c3noc(-c4cnn(C5CCCCC5)c4C4CCOCC4)n3)cc2)CC1 [Example 132, 1-(4-(5-(1-cyclohexyl-5-(tetrahydro-2H-pyran-4-yl)-1H-pyrazol-4-yl)-1,2,4-oxadiazol-3-yl)benzyl)piperidine-4-carboxylic acid] |  | 18 | 
8 | COCc1c(-c2nc(-c3ccc(COCCCC(=O)O)cc3)no2)cnn1C1CCCCC1 [Example 133, 4-(4-(5-(1-cyclohexyl-5-(methoxymethyl)-1H-pyrazol-4-yl)-1,2,4-oxadiazol-3-yl)benzyloxy)butanoic acid] | 122 |  | 
9 | COCc1c(-c2nc(-c3ccc(OCCCC(=O)O)cc3)no2)cnn1C1CCCCC1 [Example 134, 4-(4-(5-(1-cyclohexyl-5-(methoxymethyl)-1H-pyrazol-4-yl)-1,2,4-oxadiazol-3-yl)Phenoxy)butanoic acid] | 128 |  | 
10 | COCc1c(-c2nc(-c3cccc(COCC(=O)O)c3)no2)cnn1C1CCCCC1 [Example 135, {3-[5-(1-Cyclohexyl-5-methoxymethyl-1H-pyrazol-4-yl)-[1,2,4]oxadiazol-3-yl]-benzyloxy}-acetic acid] | 41.5 |  | 
11 | c1cc(-c2c(-c3nc(-c4ccc(Cn5ccnc5)cc4)no3)cnn2C2CCCCC2)ccn1 [Example 136, 4-{2-Cyclohexyl-4-[3-(4-imidazol-1-ylmethyl-phenyl)-[1,2,4]oxadiazol-5-yl]-2H-pyrazol-3-yl}-pyridine] |  |  | 58.3
12 | c1cnn(Cc2ccc(-c3noc(-c4cnn(C5CCCCC5)c4-c4ccncc4)n3)cc2)c1 [Example 137, 4-{2-Cyclohexyl-4-[3-(4-pyrazol-1-ylmethyl-phenyl)-[1,2,4]oxadiazol-5-yl]-2H-pyrazol-3-yl}-pyridine] | 5.16 |  | 
13 | COCc1c(-c2nc(-c3ccc(CCC(=O)O)cc3)no2)cnn1C1CCCCC1 [Example 139] | 393 |  | 
14 | COCc1c(-c2nc(-c3cccc(COCCC(=O)O)c3)no2)cnn1C1CCCCC1 [Example 141] | 180 |  | 
15 | COCc1c(-c2nc(-c3cccc(/C=C/C(=O)O)c3)no2)cnn1C1CCCCC1 [Example 142] | 191 |  | 
16 | COCc1c(-c2nc(-c3cccc(COCC(=O)O)c3)no2)cnn1C1CCCCC1 [Example 143] | 41.5 |  | 
17 | COCc1c(-c2nc(-c3cccc(OCCCC(=O)O)c3)no2)cnn1C1CCCCC1 [Example 144] | 31 |  | 
18 | COCc1c(-c2nc(-c3cccc(CCC(=O)O)c3)no2)cnn1C1CCCCC1 [Example 145] | 116 |  | 
19 | COCc1c(-c2nc(-c3cccc(C(=O)NCCC(=O)O)c3)no2)cnn1C1CCCCC1 [Example 147] | 257 |  | 
20 | c1cnn(Cc2ccc(-c3noc(-c4cnn(C5CCCCC5)c4-c4ccncc4)n3)cc2)c1 [Example 149] | 5.2 |  | 
21 | c1cc(-c2c(-c3nc(-c4ccc(Cc5nnn[nH]5)cc4)no3)cnn2C2CCCCC2)ccn1 [Example 154] | 76 |  | 

The remaining compounds from weak to strong by Ki (S1P1 [1]), led by results:

Row | Ki (S1P1 [1]) [nM] | EC50 (S1P1 [2]) [nM] | EC50 (S1P3) [nM] | Compound
22 | 28 |  |  | O=C(O)c1cnn(Cc2ccc(-c3noc(-c4cnn(C5CCCCC5)c4-c4ccncc4)n3)cc2)c1 [Example 153]
23 | 25 |  |  | COCc1c(-c2nc(-c3cccc(CO)c3)no2)cnn1C1CCCCC1 [Example 138]
24 | 23 | 96 |  | CCOC(=O)Cn1ncc(-c2nc(-c3cc(F)ccc3F)no2)c1-c1ccccc1 [Example 13, ethyl {4-[3-(2,5-difluorophenyl)-1,2,4-oxadiazol-5-yl]-5-phenyl-1H-pyrazol-1-yl}acetate]
25 | 13 | 255 |  | Cc1ccccc1-n1ncc(-c2nc(-c3cc(F)ccc3F)no2)c1-c1ccccc1 [Example 5, 3-(2,5-difluorophenyl)-5-(5-phenyl-1-o-tolyl-1H-pyrazol-4-yl)-1,2,4-oxadiazole]
26 | 13 | 235 |  | Fc1ccc(-n2ncc(-c3nc(-c4cc(F)ccc4F)no3)c2-c2ccccc2)cc1 [Example 6, 3-(2,5-difluorophenyl)-5-(1-(4-fluorophenyl)-5-phenyl-1H-pyrazol-4-yl)-1,2,4-oxadiazole]
27 | 9.9 |  |  | COCc1c(-c2nc(-c3ccc(C(=O)NCCC(=O)O)cc3)no2)cnn1C1CCCCC1 [Example 146]
28 | 9 | 18 |  | CC(C)Cn1ncc(-c2nc(-c3cc(F)ccc3F)no2)c1-c1ccncc1 [Example 19, 4-{4-[3-(2,5-difluorophenyl)-1,2,4-oxadiazol-5-yl]-1-isobutyl-1H-pyrazol-5-yl}pyridine]
29 | 8 | 77 |  | Fc1ccc(F)c(-c2noc(-c3cnn(-c4ccccc4)c3-c3ccccc3)n2)c1 [Example 3, 3-(2,5-difluorophenyl)-5-(1,5-diphenyl-1H-pyrazol-4-yl)-1,2,4-oxadiazole]
30 | 7 | 36 |  | CC(C)Cn1ncc(-c2nc(-c3cc(F)ccc3F)no2)c1-c1ccccc1 [Example 12, 3-(2,5-difluorophenyl)-5-(1-isobutyl-5-phenyl-1H-pyrazol-4-yl)-1,2,4-oxadiazole]
31 | 6 |  |  | c1cc(-c2c(-c3nc(-c4ccc(Cn5cnnn5)cc4)no3)cnn2C2CCCCC2)ccn1 [Example 155]
32 | 5 | 4 |  | Fc1ccc(F)c(-c2noc(-c3cnn(C4CCCCC4)c3-c3ccncc3)n2)c1 [Example 23, 5-(1-cyclohexyl-5-(pyridin-4-yl)-1H-pyrazol-4-yl)-3-(2,5-difluorophenyl)-1,2,4-oxadiazole]
33 | 4.6 |  |  | c1cc(-c2c(-c3nc(-c4ccc(CCn5cncn5)cc4)no3)cnn2C2CCCCC2)ccn1 [Example 151]
34 | 3.4 |  |  | c1cc(-c2c(-c3nc(-c4ccc(Cn5ncnn5)cc4)no3)cnn2C2CCCCC2)ccn1 [Example 150]
35 | 3.3 |  |  | N#CCc1ccc(-c2noc(-c3cnn(C4CCCCC4)c3-c3ccncc3)n2)cc1 [Example 152]
